According to article PMC2248166, “Quantitative peptide binding motifs for 19 human and mouse MHC class I molecules derived using positional scanning combinatorial peptide libraries” (Immunome Research, 2008):

What was measured:
HLA B*1501 = HLA B*1501 (Homo sapiens, UniProt P01889, A329T/A93T/A95T/C349S/D201E/D98Y/E187L/E204Q/E69M/E70A/K202T/N87E/Q94N/R155S/R180W/S121R/S35A/S48A/V306I/V36M/Y140S/Y91S); test: biochemical; assay type: binding
HLA A*3201 = HLA A*3201 (Homo sapiens, UniProt P04439, A270S/D101S/D185E/E176V/E277Q/F133L/G103R/G107R/G231S/H175R/I121M/I218V/I322F/K168Q/L105A/L300P/L318F/M331R/P208A/P217A/Q94H/R106L/R138Q/S129P/T104I/T323A/T345S/V100E/V321M/V358M); test: biochemical; assay type: binding
HLA A*3001 = HLA A*3001 (Homo sapiens, UniProt P04439, D140H/D185E/E176W/F33S/G80R/H175R/K168Q/R138E/R41S); test: biochemical; assay type: binding
HLA B*0801 = HLA B*0801 (Homo sapiens, UniProt P01889, A93T/A95T/D138N/E176V/E187T/K202T/Q94N/R180D/S35A/V36M/Y33D/Y91F); test: biochemical; assay type: binding
HLA A*0201 = HLA A*0201 (Homo sapiens, UniProt P04439, D140Y/D185E/D98H/E176V/E277Q/G131W/G231S/I119V/I121R/I166T/I218V/L300P/L318F/N151K/N90K/P208A/P217A/Q86G/Q94H/R138H/R169H/T345S); conditions: positional scanning combinatorial 9-mer library; normalized to 1.0 for the best residue at each position
H-2 D^d = H-2 D^d (Mus musculus, UniProt P01900); assay type: binding
HLA B*5301 = HLA B*5301 (Homo sapiens, UniProt P01889, A329T/A93T/A95T/C349S/D201E/D98Y/E176V/E187L/E204Q/E69T/G107R/I218V/K202T/L105A/L119I/N104I/Q94N/R106L/R155S/R180L/S101N/S121R/S35A/S48A/T118I/V127L/V306I/V36M/Y140S/Y91F); assay type: binding
HLA A*6802 = HLA A*6802 (Homo sapiens, UniProt P04439, A269V/D140Y/D185E/E176V/E277Q/E87N/F33Y/G231S/I121R/I166T/I218V/L180W/L300P/L318F/N151K/P208A/P217A/Q86R/R138H/R169H/S129P/T345S/V36M); assay type: binding
H-2 K^k = H-2 K^k (Mus musculus, UniProt P04223); assay type: binding
HLA B*5401 = HLA B*5401 (Homo sapiens, UniProt P01889, A329T/C349S/D138N/D201E/E176V/E187T/E204Q/E69G/I76V/K202T/L119W/R155S/R180L/S121T/S35A/S48A/V127L/V306I/V36M/Y140L); assay type: binding
HLA B*5101 = HLA B*5101 (Homo sapiens, UniProt P01889, A329T/A93T/A95T/C349S/D138N/D201E/D98Y/E187L/E204Q/E69T/G107R/I218V/K202T/L105A/L119W/N104I/Q94N/R106L/R155S/R180L/S101N/S121T/S35A/S48A/V306I/V36M/Y195H/Y91F); assay type: binding
H-2 D^b = H-2 D^b (Mus musculus, UniProt P01899); assay type: binding
HLA B*2705 = HLA B*2705 (Homo sapiens, UniProt P01889, D138H/D201E/E176V/E204Q/G107R/H137Y/K202T/N104T/N87E/Q56L/Q94K/R106L/R155S/R180L/S101D/S121N/S48T/Y140D/Y33H/Y91C); assay type: binding; conditions: positional scanning combinatorial 9-mer library; normalized to 1.0 for the best residue at each position
HLA B*5802 = HLA B*5802 (Homo sapiens, UniProt P01889, A329T/C349S/D201E/D98Y/E176V/E187L/E204Q/E69T/G107R/I218V/I90N/K202T/L105A/N104I/N87E/Q89R/Q94S/R106L/R155S/R180L/R86G/S101N/S121W/S35A/S48A/V127L/V306I/V36M/Y140S/Y91M); assay type: binding
HLA B*1503 = HLA B*1503 (Homo sapiens, UniProt P01889, A329T/A93T/A95T/C349S/D201E/D98Y/E187L/E204Q/K202T/N87E/Q94N/R155S/R180L/S121R/S35A/V306I/V36M/Y140S/Y91S); test: biochemical; assay type: binding
HLA B*5801 = HLA B*5801 (Homo sapiens, UniProt P01889, A329T/C349S/D201E/D98Y/E176V/E187L/E204Q/E69T/G107R/I218V/I90N/K202T/L105A/L119I/N104I/N87E/Q89R/Q94S/R106L/R155S/R180L/R86G/S101N/S121R/S35A/S48A/T118I/V127L/V306I/V36M/Y140S/Y91M); assay type: binding
HLA B*3501 = HLA B*3501 (Homo sapiens, UniProt P01889, A329T/A93T/A95T/C349S/D201E/D98Y/E176V/E187L/E204Q/E69T/I218V/K202T/L119I/Q94N/R155S/R180L/S121R/S35A/S48A/T118I/V127L/V306I/V36M/Y140S/Y91F); assay type: binding
HLA B*0702 = HLA B*0702 (Homo sapiens, UniProt P01889); assay type: binding; conditions: positional scanning combinatorial 9-mer library; normalized to 1.0 for the best residue at each position

Chain of H-2 D^d (P01900 whole entry, looked up): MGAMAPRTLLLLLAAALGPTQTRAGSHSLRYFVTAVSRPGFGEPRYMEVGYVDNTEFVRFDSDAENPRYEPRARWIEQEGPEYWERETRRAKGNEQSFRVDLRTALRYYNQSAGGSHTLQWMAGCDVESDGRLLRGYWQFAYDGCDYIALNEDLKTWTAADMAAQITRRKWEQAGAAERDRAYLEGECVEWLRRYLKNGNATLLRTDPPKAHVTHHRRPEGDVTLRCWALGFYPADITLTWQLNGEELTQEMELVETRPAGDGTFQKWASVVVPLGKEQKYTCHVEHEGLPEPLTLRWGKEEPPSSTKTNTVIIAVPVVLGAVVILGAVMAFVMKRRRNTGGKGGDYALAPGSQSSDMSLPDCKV
Chain of H-2 K^k (P01887 21-119): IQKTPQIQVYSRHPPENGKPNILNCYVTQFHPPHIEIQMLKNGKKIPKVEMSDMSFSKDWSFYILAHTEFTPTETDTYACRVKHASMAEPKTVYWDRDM
Chain of H-2 K^k (P04223 22-369): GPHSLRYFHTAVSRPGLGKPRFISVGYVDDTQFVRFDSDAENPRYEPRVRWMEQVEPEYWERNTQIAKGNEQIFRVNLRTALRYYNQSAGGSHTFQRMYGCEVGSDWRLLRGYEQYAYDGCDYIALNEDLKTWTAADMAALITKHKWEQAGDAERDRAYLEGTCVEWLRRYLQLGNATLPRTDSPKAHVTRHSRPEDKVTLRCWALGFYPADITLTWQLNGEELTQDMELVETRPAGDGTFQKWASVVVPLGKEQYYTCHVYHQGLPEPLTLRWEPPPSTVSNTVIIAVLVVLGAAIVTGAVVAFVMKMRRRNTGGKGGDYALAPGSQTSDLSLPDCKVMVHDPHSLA
Chain of H-2 D^b (P01887 21-119): as the sequence (P01887 21-119) above
Chain of H-2 D^b (P01899 25-362): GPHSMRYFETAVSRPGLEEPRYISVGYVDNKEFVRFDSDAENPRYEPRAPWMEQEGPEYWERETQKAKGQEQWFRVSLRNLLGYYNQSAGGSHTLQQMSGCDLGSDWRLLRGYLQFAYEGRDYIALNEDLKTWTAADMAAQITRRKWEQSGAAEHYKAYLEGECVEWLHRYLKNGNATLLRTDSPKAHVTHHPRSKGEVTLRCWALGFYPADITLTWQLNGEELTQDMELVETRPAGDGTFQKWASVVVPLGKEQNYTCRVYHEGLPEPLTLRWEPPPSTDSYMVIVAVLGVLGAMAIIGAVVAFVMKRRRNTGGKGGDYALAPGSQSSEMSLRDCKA

Sequence	Normalized average relative binding affinity (ARB), HLA B*1501 (HLA B*1501)	Normalized average relative binding affinity (ARB), HLA A*3201 (HLA A*3201)	Normalized average relative binding affinity (ARB), HLA A*3001 (HLA A*3001)	Normalized average relative binding affinity (ARB), HLA B*0801 (HLA B*0801)	Normalized average relative binding affinity (ARB), HLA A*0201 (HLA A*0201)	Normalized average relative binding affinity (ARB), H-2 Dd (H-2 D^d)	Normalized average relative binding affinity (ARB), HLA B*5301 (HLA B*5301)	Normalized average relative binding affinity (ARB), HLA A*6802 (HLA A*6802)	Normalized average relative binding affinity (ARB), H-2 Kk (H-2 K^k)	Normalized average relative binding affinity (ARB), HLA B*5401 (HLA B*5401)	Normalized average relative binding affinity (ARB), HLA B*5101 (HLA B*5101)	Normalized average relative binding affinity (ARB), H-2 Db (H-2 D^b)	Normalized average relative binding affinity (ARB), HLA B*2705 (HLA B*2705)	Normalized average relative binding affinity (ARB), HLA B*5802 (HLA B*5802)	Normalized average relative binding affinity (ARB), HLA B*1503 (HLA B*1503)	Normalized average relative binding affinity (ARB), HLA B*5801 (HLA B*5801)	Normalized average relative binding affinity (ARB), HLA B*3501 (HLA B*3501)	Normalized average relative binding affinity (ARB), HLA B*0702 (HLA B*0702)
XXMXXXXXX [3064.0051]	0.77	0.94	0.028	0.90	1.0	0.0095	1.0	1.0	1.0	0.24	1.0	0.31	0.87	0.57	0.33	0.48	1.0	1.0
XXNXXXXXX [3064.0052]	0.46	0.76	0.017	0.11	0.16	0.0028	0.22	0.27	0.40	0.14	0.27	0.25	0.23	0.098	0.24	0.88	0.32	0.077
XXPXXXXXX [3064.0053]	0.32	0.13	0.0036	0.072	0.056	1.0	0.010	0.043	0.035	0.013	0.42	0.38	0.027	0.047	0.058	0.042	0.089	0.014
XXQXXXXXX [3064.0054]	0.30	0.45	0.014	0.062	0.20	0.012	0.13	0.12	0.42	0.055	0.20	0.098	0.12	0.098	0.062	0.15	0.27	0.19
